Measurements published in PMC11882969 (Nature Communications, 2025).
“And” between values parts separate entries of the source, which are not always exact repeats. Equal entries are not always repeated. Where two headings read alike, the source gives them in different places.

What was measured:
hCB1 = hCB1 (Homo sapiens, UniProt P21554); test: bioSensAll ebBRET signaling profiling, hCB1; type: cell-based; design: host or cells: HEK293SL cells, transient PEI transfection; conditions: for Gi1 hCB1 response: Gi1 biosensor; for Gi1 hCB1 / GoB hCB1: single replicate values, FigS6a; for EC50: read-out: EC50 [95% CI]; for Emax: normalized to CP-55,940
hCB1, sequence (P21554 whole entry): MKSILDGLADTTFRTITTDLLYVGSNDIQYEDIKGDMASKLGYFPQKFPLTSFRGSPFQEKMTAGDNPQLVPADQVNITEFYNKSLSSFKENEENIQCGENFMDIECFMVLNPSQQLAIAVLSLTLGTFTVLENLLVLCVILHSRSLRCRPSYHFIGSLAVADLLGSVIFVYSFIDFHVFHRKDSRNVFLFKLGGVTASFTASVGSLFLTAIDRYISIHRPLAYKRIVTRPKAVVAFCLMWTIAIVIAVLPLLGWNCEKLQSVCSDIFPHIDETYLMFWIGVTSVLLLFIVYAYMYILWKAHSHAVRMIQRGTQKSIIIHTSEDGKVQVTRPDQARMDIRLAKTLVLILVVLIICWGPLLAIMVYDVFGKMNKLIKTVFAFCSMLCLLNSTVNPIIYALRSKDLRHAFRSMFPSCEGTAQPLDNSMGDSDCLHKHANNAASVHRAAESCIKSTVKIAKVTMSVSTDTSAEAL

CB1 (rCB1) = CB1 (rCB1) (Rattus norvegicus, UniProt P20272); test: Radioligand competition binding, [3H]-CP-55,940, rat brain membranes
CB1 (rCB1), sequence (P20272 whole entry): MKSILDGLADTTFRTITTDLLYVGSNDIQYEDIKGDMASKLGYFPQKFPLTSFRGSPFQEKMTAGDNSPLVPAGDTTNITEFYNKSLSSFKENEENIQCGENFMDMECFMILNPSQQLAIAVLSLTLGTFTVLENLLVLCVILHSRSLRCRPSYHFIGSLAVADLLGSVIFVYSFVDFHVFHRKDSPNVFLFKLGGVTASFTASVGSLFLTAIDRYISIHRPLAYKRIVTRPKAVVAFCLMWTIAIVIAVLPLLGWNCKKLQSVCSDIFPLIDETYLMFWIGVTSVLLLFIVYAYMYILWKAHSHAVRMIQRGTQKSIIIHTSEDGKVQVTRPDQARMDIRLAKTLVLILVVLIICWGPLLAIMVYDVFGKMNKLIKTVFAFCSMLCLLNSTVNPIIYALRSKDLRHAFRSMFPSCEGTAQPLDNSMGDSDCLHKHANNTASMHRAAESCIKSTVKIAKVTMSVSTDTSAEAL

Cc1cc(C(=O)NC(c2ccccc2)c2ccco2)nn1-c1cccc(C(F)(F)F)c1 (stereo not drawn) [‘1081]
Gi1 hCB1 response (hCB1; Log [Compound] (M) -4.22186): 74.944 | Gi1 hCB1 response (hCB1; Log [Compound] (M) -4.63927): 67.9833 | Gi1 hCB1 response (hCB1; Log [Compound] (M) -5.05788): 54.8454 | Gi1 hCB1 response (hCB1; Log [Compound] (M) -5.47381): 47.9296 | Gi1 hCB1 response (hCB1; Log [Compound] (M) -5.89285): 64.2009 | Gi1 hCB1 response (hCB1; Log [Compound] (M) -6.31878): 42.1551 | Gi1 hCB1 response (hCB1; Log [Compound] (M) -6.72585): 23.6233 | Gi1 hCB1 response (hCB1; Log [Compound] (M) -7.14267): 32.464 | Gi1 hCB1 response (hCB1; Log [Compound] (M) -7.55284): 4.129 | Gi1 hCB1 response (hCB1; Log [Compound] (M) -8): -0.3248 | Gi1 hCB1 response (hCB1; Log [Compound] (M) -8.22186): 3.077 | Gi1 hCB1 response (hCB1; Log [Compound] (M) -8.39794): 0.4809 | Gi1 hCB1 response (hCB1; Log [Compound] (M) -8.68787): 1.913 | Gi1 hCB1 response (hCB1; Log [Compound] (M) -9.15521): -3.123 | Gi1 hCB1 response (hCB1; Log [Compound] (M) -9.61989): -0.5486 | Gi1 hCB1 response (hCB1; Log [Compound] (M) -10.5529): 3.637 | Gi1 hCB1 response (hCB1; Log [Compound] (M) -11.0177): -17.939 | Gi1 hCB1 response (hCB1; Log [Compound] (M) -11.4949): 0.01089 | Gi1 hCB1 response (hCB1; Log [Compound] (M) -11.9208): -4.7116 | Gi1 hCB1 response (hCB1; Log [Compound] (M) -12.3979): -3.011 | Gi1 hCB1 response (hCB1; Log [Compound] (M) -13, individual replicate values): 10.3511 and -8.673 | Gi1 hCB1 (hCB1; Log [Compound] (M) -4.22186): 52.0891 | GoB hCB1 (hCB1; Log [Compound] (M) -4.22186): 46.0629 | Gi1 hCB1 (hCB1; Log [Compound] (M) -4.63927): 50.1467 | GoB hCB1 (hCB1; Log [Compound] (M) -4.63927): 47.4116 | Gi1 hCB1 (hCB1; Log [Compound] (M) -5.05788): 48.6204 | GoB hCB1 (hCB1; Log [Compound] (M) -5.05788): 38.1682 | Gi1 hCB1 (hCB1; Log [Compound] (M) -5.47381): 43.0088 | GoB hCB1 (hCB1; Log [Compound] (M) -5.47381): 38.8336 | Gi1 hCB1 (hCB1; Log [Compound] (M) -5.89285): 42.6234 | GoB hCB1 (hCB1; Log [Compound] (M) -5.89285): 33.6364 | Gi1 hCB1 (hCB1; Log [Compound] (M) -6.31878): 36.4105 | GoB hCB1 (hCB1; Log [Compound] (M) -6.31878): 34.6075 | Gi1 hCB1 (hCB1; Log [Compound] (M) -6.72585): 32.0322 | GoB hCB1 (hCB1; Log [Compound] (M) -6.72585): 26.2812 | Gi1 hCB1 (hCB1; Log [Compound] (M) -7.14267): 17.1706 | GoB hCB1 (hCB1; Log [Compound] (M) -7.14267): 21.1739 | Gi1 hCB1 (hCB1; Log [Compound] (M) -7.55284): 12.4531 | GoB hCB1 (hCB1; Log [Compound] (M) -7.55284): 14.1424 | Gi1 hCB1 (hCB1; Log [Compound] (M) -8): 6.533 | GoB hCB1 (hCB1; Log [Compound] (M) -8): 4.935 | Gi1 hCB1 (hCB1; Log [Compound] (M) -8.22186): 6.209 | GoB hCB1 (hCB1; Log [Compound] (M) -8.22186): 1.626 | Gi1 hCB1 (hCB1; Log [Compound] (M) -8.39794): 4.544 | GoB hCB1 (hCB1; Log [Compound] (M) -8.39794): 0.2593 | Gi1 hCB1 (hCB1; Log [Compound] (M) -8.68787): 3.434 | GoB hCB1 (hCB1; Log [Compound] (M) -8.68787): -1.683 | Gi1 hCB1 (hCB1; Log [Compound] (M) -9.15521): 3.357 | GoB hCB1 (hCB1; Log [Compound] (M) -9.15521): -3.445 | Gi1 hCB1 (hCB1; Log [Compound] (M) -9.61989): 1.492 | GoB hCB1 (hCB1; Log [Compound] (M) -9.61989): -0.6039 | Gi1 hCB1 (hCB1; Log [Compound] (M) -10.0969): 1.199 | GoB hCB1 (hCB1; Log [Compound] (M) -10.0969): -2.51 | Gi1 hCB1 (hCB1; Log [Compound] (M) -10.5529): 3.496 | GoB hCB1 (hCB1; Log [Compound] (M) -10.5529): -5.459 | Gi1 hCB1 (hCB1; Log [Compound] (M) -11.0177): 1.214 | GoB hCB1 (hCB1; Log [Compound] (M) -11.0177): -3.661 | Gi1 hCB1 (hCB1; Log [Compound] (M) -11.4949): 1.523 | GoB hCB1 (hCB1; Log [Compound] (M) -11.4949): 0.9786 | Gi1 hCB1 (hCB1; Log [Compound] (M) -11.9208): 2.833 | GoB hCB1 (hCB1; Log [Compound] (M) -11.9208): 3.047 | Gi1 hCB1 (hCB1; Log [Compound] (M) -12.3979): 0.3511 | GoB hCB1 (hCB1; Log [Compound] (M) -12.3979): -1.071 | Gi1 hCB1 (hCB1; Log [Compound] (M) -12.8861): 2.432 | GoB hCB1 (hCB1; Log [Compound] (M) -12.8861): -2.402 | Gi1 hCB1 (hCB1; Log [Compound] (M) -13): 2.448 and 3.003 | GoB hCB1 (hCB1; Log [Compound] (M) -13): -0.01046 and 0.7448 | pEC50 [95% CI] (hCB1; hCB1 Gi1): 6.8 [6.7 – 6.9] | pEC50 [95% CI] (hCB1; hCB1 GoB): 7.0 [6.8 – 7.3] | pEC50 [95% CI] (hCB1; hCB1 Gz): 6.7 [6.2 – 7.1] | EC50 (hCB1; hCB1 Gi1): 150 nM | EC50 (hCB1; hCB1 GoB): 91.7 nM | EC50 (hCB1; hCB1 Gz): 225 nM | Emax (hCB1; read-out: Emax [95% CI], hCB1 Gi1): 49% | Emax (hCB1; read-out: Emax [95% CI], hCB1 GoB): 45% | Emax (hCB1; read-out: Emax [95% CI], hCB1 Gz): 72% | pKi [95% CI] (CB1 (rCB1); rCB1): 6.9 [6.8 – 7.1] | Ki (CB1 (rCB1); read-out: Ki [95% CI], rCB1, [3H]-CP-55,940): 116 nM
